These results are taken from ChEMBL document CHEMBL1201862, “PubChem BioAssay data set” (2004).

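Following 48 hours of exposure in 96-well plates, responses at five concentrations were used to interpolate endpoints linearly. Abbreviation: GI50, concentration required for 50% inhibition of growth.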 Calls of active or inactive are those of the source. No stated cut-off is given here; in the data, active = GI50 up to about 1.1 µM and inactive = higher.

Some test systems named below: 786-0; CAKI-1; CCRF-CEM; COLO 205; EKVX; HCT-116; HOP-62; HT-29; M14; NCI-H522; OVCAR-8; RPMI-8226; RXF 393; SF-268; SF-295; SK-MEL-28; SK-MEL-2; UACC-62; HCC 2998.
Assay in all cases: NCI anticancer screen, dose series, 48 h

On to `COc1ccc2nc3c([N+](=O)[O-])ccc(NCCCN(C)C)c3c(N)c2c1`, for which the GI50 is 1.22 µM (inactive) with 786-0; 1.81 µM (inactive) in the experiment with CAKI-1; 0.245 µM (active) in the experiment with CCRF-CEM; 0.764 µM (active) in the experiment with COLO 205; 1.74 µM (inactive) in the experiment with EKVX; 0.316 µM (active) with HCT-116. The GI50 was 1.78 µM (inactive) in the experiment with HOP-62; 0.845 µM (active) in the experiment on HT-29; 1.9 µM (inactive) with M14; 0.474 µM (active) with NCI-H522; 1.75 µM (inactive) with OVCAR-8; 1.15 µM (inactive) with RPMI-8226. The GI50 in the experiment on RXF 393 was 1.29 µM (inactive); in the experiment with SF-268 it was 1.45 µM (inactive); in the experiment with SF-295, 1.37 µM (inactive); with SK-MEL-28, 1.62 µM (inactive); with SK-MEL-2, 2.39 µM (inactive); with UACC-62, 1.82 µM (inactive).

On to `COc1ccc(NC(=S)N/N=C\c2ccc(NC(C)=O)cc2)cc1`, for which the GI50 in the experiment with 786-0, in the experiment on CAKI-1, with CCRF-CEM, in the experiment with COLO 205, with EKVX and in the experiment with HCC 2998 was > 100 µM (inactive) each time. Moreover, the GI50 in the experiment on HCT-116, in the experiment with HOP-62, in the experiment with HT-29, in the experiment with M14, in the experiment with NCI-H522 and in the experiment on RPMI-8226 was > 100 µM (inactive) in each case. Moreover, the GI50 in the experiment on SF-295, in the experiment with SK-MEL-28, in the experiment on SK-MEL-2 and in the experiment on UACC-62 was > 100 µM (inactive) each time.

`CCCCP(CCCC)(CCCC)=C(C(=O)OC)C(C(=O)OC)=C1SC(C(=O)OC)=C(C(=O)OC)S1`: the GI50 in the experiment on 786-0 was 17.8 µM (inactive); with COLO 205, 17 µM (inactive); with EKVX it was 27.2 µM (inactive); with HCT-116, 12 µM (inactive); in the experiment with HOP-62, 20.4 µM (inactive); in the experiment on HT-29, 14.5 µM (inactive). Besides, the GI50 in the experiment on M14 was 15.2 µM (inactive); in the experiment on NCI-H522, 17.7 µM (inactive); with OVCAR-8 it was 20.7 µM (inactive); with RPMI-8226, 63.2 µM (inactive); in the experiment with RXF 393 it was 10.3 µM (inactive); in the experiment on SF-268, 30.6 µM (inactive). Also, the GI50 in the experiment on SF-295 was 19.3 µM (inactive); with SK-MEL-28, 15.5 µM (inactive); with SK-MEL-2 it was 26.2 µM (inactive); in the experiment on UACC-62, 14.1 µM (inactive).

For `O=[N+]([O-])c1c(O)c2nonc2c2nn(-c3ccccc3)nc12`, the GI50 in the experiment with 786-0, in the experiment on CAKI-1, in the experiment on CCRF-CEM, in the experiment on COLO 205, in the experiment with EKVX and in the experiment on HCC 2998 was > 100 µM (inactive) each time. Besides, the GI50 in the experiment with HCT-116 was > 100 µM (inactive); in the experiment with HOP-62 it was > 100 µM (inactive); with HT-29, > 100 µM (inactive); in the experiment on M14 it was > 100 µM (inactive); with NCI-H522, 40 µM (inactive); with OVCAR-8, > 100 µM (inactive). The GI50 in the experiment with RPMI-8226, in the experiment on SF-268, in the experiment with SF-295, in the experiment with SK-MEL-28, in the experiment with SK-MEL-2 and with UACC-62 was > 100 µM (inactive) each time.
